Data as given in PMC12005787, “Synthetic Lethality of SHP2 and XIAP Suppresses Proliferation and Metastasis in KRAS‐mutant Nonsmall Cell Lung Cancer” (Advanced Science, 2025).

Legend:
SHP2 = molecular target: T1, SHP2 (Homo sapiens, UniProt Q06124); assay: Cellular thermal shift assay (CETSA); type: binding; conditions: NCI‐H2122 cell lysate
T1 construct: endogenous in cells; host or cells: NCI-H2122
T1 sequence (Q06124 1-593): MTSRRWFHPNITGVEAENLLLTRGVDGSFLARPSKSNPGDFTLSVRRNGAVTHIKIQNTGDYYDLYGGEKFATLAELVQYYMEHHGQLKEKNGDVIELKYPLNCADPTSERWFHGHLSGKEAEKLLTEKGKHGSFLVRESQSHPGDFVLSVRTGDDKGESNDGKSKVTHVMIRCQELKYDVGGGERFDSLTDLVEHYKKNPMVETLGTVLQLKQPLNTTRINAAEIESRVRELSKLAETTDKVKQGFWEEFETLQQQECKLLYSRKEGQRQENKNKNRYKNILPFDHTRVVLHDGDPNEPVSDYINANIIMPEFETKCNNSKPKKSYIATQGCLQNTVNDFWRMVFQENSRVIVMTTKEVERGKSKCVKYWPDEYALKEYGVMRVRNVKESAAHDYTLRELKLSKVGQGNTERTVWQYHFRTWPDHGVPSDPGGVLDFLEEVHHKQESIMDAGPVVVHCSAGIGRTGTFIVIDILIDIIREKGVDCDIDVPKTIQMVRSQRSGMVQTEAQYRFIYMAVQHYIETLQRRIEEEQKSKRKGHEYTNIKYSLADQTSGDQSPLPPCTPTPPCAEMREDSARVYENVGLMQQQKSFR
Method: (§1) NCI‐H2122 cells were harvested and resuspended with pre‐cooled PBS containing 1% cocktail, which was then frozen in liquid nitrogen for 5 min and thawed in a water bath at 37 °C for 5 min for three repetitions. The supernatant was collected via centrifugation at 4 °C (15 000 × g, 20 min), divided into two equal portions; one was added with test drugs or various concentrations of embelin, and the other was added with DMSO as control and subsequently incubated at 25 °C for 30 min. All samples were heated at temperatures ranging from 52–70 °C for 3 min, and subsequently in an ice bath for 3 min and collected by centrifugation at 4 °C (15 000 × g, 20 min), and added with protein sampling buffer at 100 °C for 5 min, followed by analysis of protein stability using western blotting.

[1] = tested on: RAS wild‐type and mutant cells; assay: Colony formation assay; type: cell-based
Method: supplies are listed in Supplementary Table S5. […]
Colony formation experiment
Cells in the logarithmic growth phase were digested thoroughly into a single dispersed state and inoculated into six-well plates at a density of 100 well-1. Subsequently, different concentrations of the drugs were added for 14 d, consecutively, and the solution was changed every 2 d. Next, the cells were fixed with 4% formaldehyde, stained with 0.1% crystal violet, and the number of clones was counted using an inverted microscope. […]

XIAP = molecular target: T2, XIAP (Homo sapiens, UniProt P98170); assay: Cellular thermal shift assay (CETSA); type: binding; conditions: 56 and 62 ℃
T2 construct: endogenous in cells; host or cells: NCI-H2122
T2 sequence (P98170 whole entry): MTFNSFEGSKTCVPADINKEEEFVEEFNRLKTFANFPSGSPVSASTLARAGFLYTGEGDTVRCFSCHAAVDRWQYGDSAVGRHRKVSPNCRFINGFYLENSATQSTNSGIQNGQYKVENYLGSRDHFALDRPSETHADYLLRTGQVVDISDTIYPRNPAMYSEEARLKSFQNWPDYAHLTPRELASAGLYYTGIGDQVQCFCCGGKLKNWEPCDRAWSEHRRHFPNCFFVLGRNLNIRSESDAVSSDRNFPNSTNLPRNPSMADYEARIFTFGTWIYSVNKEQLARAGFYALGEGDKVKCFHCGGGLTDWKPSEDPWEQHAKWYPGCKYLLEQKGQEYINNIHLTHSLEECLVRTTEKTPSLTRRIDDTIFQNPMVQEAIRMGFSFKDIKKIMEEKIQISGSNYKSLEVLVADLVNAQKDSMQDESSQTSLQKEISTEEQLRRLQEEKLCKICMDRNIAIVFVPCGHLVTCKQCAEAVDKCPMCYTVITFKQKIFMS
Method: as §1

A549 and NCI‐H2122 cells = assay: Cell proliferation in monolayer culture (CCK-8); type: cell-based, human
Method: For the adherent cell viability assay, cells in the logarithmic growth phase were seeded in 96-well culture plates at a density of 5×103 well-1 and incubated overnight. Diluted compounds or DMSO were added, or specific treatments were incubated at 37 °C and 5% CO2 for 24 h or 48 h. Cell viability was determined using CCK-8 or CellLightTM Cell Viability Assay Kit, according to the manufacturer's protocol. The luminescence signals of the treated samples were normalized to those of the DMSO group. […]
Figure S7. Targeting SHP2 and XIAP produces a synthetic lethal effect. (A) Effects of NSC-87877 on cell viability of A549 and NCI-H2122 cells after 24 and 48 h were determined using the CCK-8. Bars, ± SEM. The curves were plotted using a variable slope (four-parameter) non-linear fit. (B, E, F, and I) Effects of Na3VO4 (B), birinapant (E), BV-6 (F), and LCL161 (I) on cell viability of human NCI-H2122 cells at 48 h were determined using the CCK-8. *p < 0.05, **p < 0.01 and ***p < 0.001 compared to control group (unpaired two-tailed Student’s t-test).(C, G) Effects of SHP099 (C) and GDC-0152 (G) on cell viability after 24 and 48 h were determined using the CCK-8. Bars, ± SEM. The curves were plotted using a variable slope (four-parameter) non-linear fit.(D, H) Effects of SHP099 (D) and GDC-0152 (H) on cell viability were determined after 48 h using intracellular ATP chemiluminescence. **p < 0.01 and ***p < 0.001 compared to control group (unpaired two-tailed Student’s t-test).(J) Effects of SHP099 and GDC-0152 separately and in combination, and the effect of embelin for 24 h on the cell viability were assessed using intracellular ATP […]
tailed Student’s t-test).(K) Effects of SHP099 and GDC-0152 separately and in combination with […] on the cell viability of human KRAS-WT and -mutant cells were assessed using a colony formation assay. (L, M) A549 and NCI-H2122 cells were instantaneously transfected with siPTPN11 and siXIAP separately and together for 24 h under

Row | Structure (SMILES) | effect on SHP2 protein stability (CETSA) (SHP2) | colony formation [1] | effect on XIAP protein stability (CETSA) (XIAP) | effect on cell proliferation in monolayer cell culture mode (A549 and NCI‐H2122 cells)
1 | CCCCCCCCCCCC1=C(O)C(=O)C=C(O)C1=O [Embelin] | increased the stability of SHP2 protein | cytotoxic effects on both RAS |  | 
2 | CC1(N)CCN(c2cnc(-c3cccc(Cl)c3Cl)c(N)n2)CC1 [SHP099] |  |  | did not affect XIAP protein stability | almost no effect
